# US20230271954A1 (Gossamer Bio Services, Inc., priority 2020, published 2023)
# Tests used:
# DGKζ = target: T1, DGKζ (Homo sapiens, UniProt Q13574); experiment: DGKζ biochemical assay (ADP-Glo); settings: read-out: DGK ζ IC50
# T1 construct: purchased Carna 12-110
# DGKα = DGKα (Homo sapiens, UniProt P23743); experiment: DGKα biochemical assay (ADP-Glo); settings: read-out: DGK α IC50
# In short: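 ADP-Glo kinase assay using OAG/PS (1:2) lipid substrate, sonicated, in HEPES pH 7.0 buffer with MgCl2, CaCl2, DTT, BSA, Triton X-100. Enzyme preincubated with compound 30 min at RT; substrate with ATP (DGKα: 400 μM) added, 45 min RT. Luminescence read; % inhibition vs DMSO and no-enzyme controls.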
# T1 sequence (Q13574 1-929 isoform Q13574-4): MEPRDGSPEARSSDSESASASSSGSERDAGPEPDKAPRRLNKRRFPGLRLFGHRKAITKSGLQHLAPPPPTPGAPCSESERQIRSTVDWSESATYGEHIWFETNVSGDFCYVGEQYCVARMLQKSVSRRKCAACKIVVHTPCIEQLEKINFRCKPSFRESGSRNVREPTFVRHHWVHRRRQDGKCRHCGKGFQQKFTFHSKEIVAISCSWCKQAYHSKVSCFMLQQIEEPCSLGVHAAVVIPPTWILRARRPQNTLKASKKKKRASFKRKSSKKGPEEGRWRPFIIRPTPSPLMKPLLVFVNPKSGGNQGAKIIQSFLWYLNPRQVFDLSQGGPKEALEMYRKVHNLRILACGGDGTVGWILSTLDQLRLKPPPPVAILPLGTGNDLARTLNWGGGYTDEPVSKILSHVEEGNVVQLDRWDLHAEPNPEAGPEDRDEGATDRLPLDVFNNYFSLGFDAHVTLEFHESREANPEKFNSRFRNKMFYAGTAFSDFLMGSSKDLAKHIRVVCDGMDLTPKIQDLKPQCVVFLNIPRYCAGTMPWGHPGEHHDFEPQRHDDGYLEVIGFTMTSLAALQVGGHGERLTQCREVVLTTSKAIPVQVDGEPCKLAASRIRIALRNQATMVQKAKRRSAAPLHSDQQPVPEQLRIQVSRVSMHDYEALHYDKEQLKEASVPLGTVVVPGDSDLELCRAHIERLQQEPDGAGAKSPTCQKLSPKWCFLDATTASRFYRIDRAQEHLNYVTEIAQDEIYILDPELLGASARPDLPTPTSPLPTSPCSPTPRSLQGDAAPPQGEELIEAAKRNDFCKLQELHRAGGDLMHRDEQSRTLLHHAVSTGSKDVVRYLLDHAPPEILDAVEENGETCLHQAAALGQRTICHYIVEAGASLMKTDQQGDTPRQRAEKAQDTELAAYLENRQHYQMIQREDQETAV
# Sequence of DGKα (P23743 whole entry): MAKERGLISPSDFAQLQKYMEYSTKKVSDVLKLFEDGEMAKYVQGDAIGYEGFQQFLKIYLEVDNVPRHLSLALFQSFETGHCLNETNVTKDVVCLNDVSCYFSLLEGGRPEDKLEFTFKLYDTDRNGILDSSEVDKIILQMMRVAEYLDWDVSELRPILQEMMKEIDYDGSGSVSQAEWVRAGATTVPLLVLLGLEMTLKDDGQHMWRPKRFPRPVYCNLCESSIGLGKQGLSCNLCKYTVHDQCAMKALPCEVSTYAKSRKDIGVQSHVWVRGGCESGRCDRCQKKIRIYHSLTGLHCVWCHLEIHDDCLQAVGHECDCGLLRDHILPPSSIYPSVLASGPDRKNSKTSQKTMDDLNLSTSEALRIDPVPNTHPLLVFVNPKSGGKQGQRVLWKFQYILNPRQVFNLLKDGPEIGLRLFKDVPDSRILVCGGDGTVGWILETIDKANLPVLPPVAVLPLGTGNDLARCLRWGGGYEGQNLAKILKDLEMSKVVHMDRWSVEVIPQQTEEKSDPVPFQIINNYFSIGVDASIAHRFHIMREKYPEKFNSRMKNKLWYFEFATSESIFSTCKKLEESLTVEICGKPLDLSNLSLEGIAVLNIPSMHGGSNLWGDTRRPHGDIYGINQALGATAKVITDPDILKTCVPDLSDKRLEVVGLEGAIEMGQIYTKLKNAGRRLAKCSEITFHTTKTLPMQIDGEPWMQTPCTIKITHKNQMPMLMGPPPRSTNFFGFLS
SMILES,IC50 (DGKζ) [nM],IC50 (DGKα) [nM]
"Cc1cc(F)ccc1N(CC1CC1)[C@H]1CC[C@H](N(C)c2cc(=O)n(C)c3ccc(C#N)nc23)CC1 [Example 72, trans-8-((4-((cyclopropylmethyl)(4-fluoro-2-methylphenyl)amino)cyclohexyl)(methyl)amino)-5-methyl-6-oxo-5,6-dihydro-1,5-naphthyridine-2-carbonitrile]",100 to 1000,≥ 1000
"Cc1cc(F)ccc1N(CC1CC1)[C@H]1CC[C@H](N(C)c2c(C#N)c(=O)n(C)c3ccc(C#N)nc23)CC1 [Example 73, trans-8-((4-((cyclopropylmethyl)(4-fluoro-2-methylphenyl)amino)cyclohexyl)(methyl)amino)-5-methyl-6-oxo-5,6-dihydro-1,5-naphthyridine-2,7-dicarbonitrile]",10 to 100,10 to 100
Cn1c(=O)cc(N(C)[C@H]2CC[C@@H](N(CC3CC3)c3ccc4c(c3)OCO4)CC2)c2nc(C#N)ccc21 [Example 75],≥ 1000,10 to 100
Cn1c(=O)c(C#N)c(N(C)[C@H]2CC[C@H](N(CC3CC3)c3ccc(F)c(OC(F)F)c3)CC2)c2nc(C#N)ccc21 [Example 76],100 to 1000,100 to 1000
COc1cc(N(CC2CC2)[C@H]2CC[C@H](N(C)c3c(C#N)c(=O)n(C)c4ccc(C#N)nc34)CC2)cc(F)c1F [Example 77],100 to 1000,≥ 1000
Cn1c(=O)c(C#N)c(N(C)[C@H]2CC[C@@H](N(CC3CC3)c3ccc4c(c3)OCO4)CC2)c2nc(Cl)ccc21 [Example 78],10 to 100,100 to 1000
Cn1c(=O)c(C#N)c(N(C)[C@H]2CC[C@H](N(CC3CC3)c3ccc4c(c3)OCO4)CC2)c2nc(C#N)ccc21 [Example 79],100 to 1000,≥ 1000
Cn1c(=O)cc(N(C)[C@H]2CC[C@H](N(CC3CC3)c3ccc(F)c(OC(F)F)c3)CC2)c2nc(C#N)ccc21 [Example 80],≥ 1000,≥ 1000
Cn1c(=O)c(C#N)c(N(C)[C@H]2CC[C@@H](N(CC3CC3)c3cc(F)cc(F)c3)CC2)c2nc(C#N)ccc21 [Example 81],10 to 100,10 to 100
Cn1c(=O)cc(N(C)[C@H]2CC[C@@H](N(CC3CC3)c3cc(F)cc(F)c3)CC2)c2nc(C#N)ccc21 [Example 82],100 to 1000,10 to 100
COc1cc(N(C2CC2)[C@H]2CC[C@@H](N(C)c3cc(=O)n(C)c4ccc(C#N)nc34)CC2)ccc1F [Example 83],100 to 1000,100 to 1000
Cn1c(=O)cc(N(C)[C@H]2CC[C@@H](N(CC3CC3)c3ccc(F)c(OC(F)F)c3)CC2)c2nc(C#N)ccc21 [Example 84],100 to 1000,10 to 100
COc1cc(N(CC2CC2)[C@H]2CC[C@H](N(C)c3c(C#N)c(=O)n(C)c4ccc(Cl)nc34)CC2)cc(F)c1F [Example 85],≥ 1000,< 10
Cn1c(=O)c(C#N)c(N(C)[C@H]2CC[C@H](N(CC3CC3)c3cc(F)cc(F)c3)CC2)c2nc(C#N)ccc21 [Example 86],100 to 1000,100 to 1000
Cc1cc(F)cc(N(CC2CC2)[C@H]2CC[C@H](N(C)c3c(C#N)c(=O)n(C)c4ccc(C#N)nc34)CC2)c1 [Example 87],100 to 1000,100 to 1000
Cn1c(=O)cc(N(C)[C@H]2CC[C@H](N(CC3CC3)c3ccc4c(c3)OCO4)CC2)c2nc(C#N)ccc21 [Example 88],≥ 1000,≥ 1000
Cc1cc(F)cc(N(CC2CC2)[C@H]2CC[C@H](N(C)c3cc(=O)n(C)c4ccc(C#N)nc34)CC2)c1 [Example 89],≥ 1000,≥ 1000
Cn1c(=O)cc(N(C)[C@H]2CC[C@H](N(CC3CC3)c3cc(F)cc(F)c3)CC2)c2nc(C#N)ccc21 [Example 90],≥ 1000,≥ 1000
Cc1cc(N(CC2CCC2)[C@H]2CC[C@@H](N(C)c3c(C#N)c(=O)n(C)c4ccc(C#N)nc34)CC2)ccc1F [Example 91],10 to 100,< 10
Cc1cc(N(CC2CCC2)[C@H]2CC[C@@H](N(C)c3cc(=O)n(C)c4ccc(C#N)nc34)CC2)ccc1F [Example 92],100 to 1000,10 to 100

SMILES,IC50 (DGKζ) [nM],IC50 (DGKα) [nM]
COc1cc(N(C2CC2)[C@H]2CC[C@H](N(C)c3cc(=O)n(C)c4ccc(C#N)nc34)CC2)ccc1F [Example 93],≥ 1000,100 to 1000
Cc1cc(F)cc(N(CC2CCC2)[C@H]2CC[C@H](N(C)c3c(C#N)c(=O)n(C)c4ccc(C#N)nc34)CC2)c1 [Example 94],100 to 1000,100 to 1000
COc1cc(N(CC2CC2)[C@H]2CC[C@H](N(C)c3cc(=O)n(C)c4ccc(C#N)nc34)CC2)cc(F)c1F [Example 95],100 to 1000,≥ 1000
Cn1c(=O)c(C#N)c(N(C)[C@H]2CC[C@H](N(CC3CC3)c3ccc(F)c(OC(F)F)c3)CC2)c2nc(Cl)ccc21 [Example 96],≥ 1000,< 10
Cn1c(=O)c(C#N)c(N(C)[C@H]2CC[C@@H](N(CC3CCC3)c3ccc4c(c3)OCO4)CC2)c2nc(C#N)ccc21 [Example 97],10 to 100,< 10
COc1cc(N(CC2CC2)[C@H]2CC[C@@H](N(C)c3c(C#N)c(=O)n(C)c4ccc(Cl)nc34)CC2)cc(F)c1F [Example 98],100 to 1000,100 to 1000
Cc1ccc(N(CC2CCC2)[C@H]2CC[C@@H](N(C)c3c(C#N)c(=O)n(C)c4ccc(C#N)nc34)CC2)cc1 [Example 99],10 to 100,< 10
Cc1ccc(N(CC2CCC2)[C@H]2CC[C@@H](N(C)c3cc(=O)n(C)c4ccc(C#N)nc34)CC2)cc1 [Example 100],≥ 1000,< 10
COc1cc(N(CC2CC2)[C@H]2CC[C@@H](N(C)c3c(C#N)c(=O)n(C)c4ccc(C#N)nc34)CC2)cc(OC)c1F [Example 101],10 to 100,≥ 1000
"Cn1c(=O)c(C#N)c(N(C)[C@H]2CC[C@H](N(CC3CC3)c3cccnc3)CC2)c2nc(C#N)ccc21 [Example 103, trans-8-((4-((cyclopropylmethyl)(pyridin-3-yl)amino)cyclohexyl)(methyl)amino)-5-methyl-6-oxo-5,6-dihydro-1,5-naphthyridine-2,7-dicarbonitrile]",≥ 1000,≥ 1000
"Cc1cc(F)ccc1N(CC1CCC1)[C@H]1CC[C@H](N(C)c2c(C#N)c(=O)n(C)c3ccc(Cl)nc23)CC1 [Example 104, trans-6-chloro-4-((4-((cyclobutylmethyl)(4-fluoro-2-methylphenyl)amino)cyclohexyl)(methyl)amino)-1-methyl-2-oxo-1,2-dihydro-1,5-naphthyridine-3-carbonitrile]",≥ 1000,≥ 1000
"Cc1c(F)cccc1N(CC1CC1)[C@H]1CC[C@H](N(C)c2c(C#N)c(=O)n(C)c3ccc(Cl)nc23)CC1 [Example 105, trans-6-chloro-4-((4-((cyclopropylmethyl)(3-fluoro-2-methylphenyl)amino)cyclohexyl)(methyl)amino)-1-methyl-2-oxo-1,2-dihydro-1,5-naphthyridine-3-carbonitrile]",100 to 1000,≥ 1000
"Cc1cc(F)ccc1N(CC1CCC1)[C@H]1CC[C@H](N(C)c2c(C#N)c(=O)n(C)c3ccc(C#N)nc23)CC1 [Example 106, trans-8-((4-((cyclobutylmethyl)(4-fluoro-2-methylphenyl)amino)cyclohexyl)(methyl)amino)-5-methyl-6-oxo-5,6-dihydro-1,5-naphthyridine-2,7-dicarbonitrile]",100 to 1000,100 to 1000
"Cc1c(F)cccc1N(CC1CC1)[C@H]1CC[C@H](N(C)c2c(C#N)c(=O)n(C)c3ccc(C#N)nc23)CC1 [Example 107, trans-8-((4-((cyclopropylmethyl)(3-fluoro-2-methylphenyl)amino)cyclohexyl)(methyl)amino)-5-methyl-6-oxo-5,6-dihydro-1,5-naphthyridine-2,7-dicarbonitrile]",100 to 1000,≥ 1000
"COc1cc(F)ccc1N(CC1CC1)[C@H]1CC[C@H](N(C)c2c(C#N)c(=O)n(C)c3ccc(Cl)nc23)CC1 [Example 108, trans-6-chloro-4-((-4-((cyclopropylmethyl)(4-fluoro-2-methoxyphenyl)amino)cyclohexyl)(methyl)amino)-1-methyl-2-oxo-1,2-dihydro-1,5-naphthyridine-3-carbonitrile]",100 to 1000,10 to 100
"Cn1c(=O)c(C#N)c(N(C)[C@H]2CC[C@@H](N(CC3CCC3)c3cccc4c3OCO4)CC2)c2nc(C#N)ccc21 [Example 109, cis-8-((-4-(benzo[d][1,3]dioxol-4-yl(cyclobutylmethyl)amino)cyclohexyl)(methyl)amino)-5-methyl-6-oxo-5,6-dihydro-1,5-naphthyridine-2,7-dicarbonitrile]",10 to 100,10 to 100
"Cn1c(=O)c(C#N)c(N(C)[C@H]2CC[C@@H](N(CC3CCC3)c3cccc4c3OCO4)CC2)c2nc(Cl)ccc21 [Example 110, cis-4-((-4-(benzo[d][1,3]dioxol-4-yl(cyclobutylmethyl)amino)cyclohexyl)(methyl)amino)-6-chloro-1-methyl-2-oxo-1,2-dihydro-1,5-naphthyridine-3-carbonitrile]",100 to 1000,10 to 100
"Cn1c(=O)cc(N(C)[C@H]2CC[C@@H](N(CC3CCC3)c3cccc4c3OCO4)CC2)c2nc(C#N)ccc21 [Example 111, cis-8-((-4-(benzo[d][1,3]dioxol-4-yl(cyclobutylmethyl)amino)cyclohexyl)(methyl)amino)-5-methyl-6-oxo-5,6-dihydro-1,5-naphthyridine-2-carbonitrile]",100 to 1000,100 to 1000
"Cn1c(=O)c(C#N)c(N(C)[C@H]2CC[C@H](N(CC3CCC3)c3cccc4c3OCO4)CC2)c2nc(C#N)ccc21 [Example 112, trans-8-((-4-(benzo[d][1,3]dioxol-4-yl(cyclobutylmethyl)amino)cyclohexyl)(methyl)amino)-5-methyl-6-oxo-5,6-dihydro-1,5-naphthyridine-2,7-dicarbonitrile]",100 to 1000,10 to 100
